In ChEMBL document CHEMBL3244262, “A Fujita--Ban structure--activity analysis of 44 steroids” (1978):

Test system: Rattus norvegicus
Assay: Glucocorticoid activity in sc dosed bilaterally adrenalectomized rat assessed as glycogen deposition in liver administered for 5 days relative to cortisol
Assay type: functional

Row | Compound | log(activity)
1 | CC(=O)[C@@]1(O)CC[C@H]2[C@@H]3C[C@H](C)C4=CC(=O)CC[C@]4(C)[C@H]3[C@@H](O)C[C@@]21C | 0.36
2 | C[C@]12CC(=O)[C@H]3[C@@H](CCC4=CC(=O)CC[C@@]43C)[C@@H]1CC[C@@H]2C(=O)CO | -0.31
3 | C[C@H]1C[C@H]2[C@@H]3CC[C@](O)(C(=O)CO)[C@@]3(C)C[C@H](O)[C@]2(F)[C@@]2(C)C=CC(=O)C=C12 | 1.15
4 | CC(=O)[C@@]1(O)[C@H](O)C[C@H]2[C@@H]3CCC4=CC(=O)C=C[C@]4(C)[C@@]3(F)[C@@H](O)C[C@@]21C | 0.93
5 | C[C@@H]1C[C@@]2(C)C(=CC1=O)CC[C@@H]1[C@@H]2[C@@H](O)C[C@@]2(C)[C@H]1CC[C@]2(O)C(=O)CO | 0.64
6 | C[C@]12CCC(=O)C=C1CC[C@H]1[C@@H]3C[C@@H](O)[C@](O)(C(=O)CO)[C@@]3(C)C[C@H](O)[C@@]12F | 0.53
7 | CC(=O)[C@H]1CC[C@H]2[C@@H]3C[C@H](C)C4=CC(=O)CC[C@]4(C)[C@@]3(F)[C@@H](O)C[C@]12C | 0.34
8 | C[C@H]1C[C@@H]2[C@H]([C@@H](O)C[C@@]3(C)[C@H]2CC[C@]3(O)C(=O)CF)[C@@]2(C)CCC(=O)C=C12 | 0.29
9 | C[C@H]1C[C@@H]2[C@H]([C@@H](O)C[C@@]3(C)[C@H]2CC[C@]3(O)C(=O)CF)[C@@]2(C)C=CC(=O)C=C12 | 0.2
10 | C[C@H]1C[C@@H]2[C@H]([C@@H](O)C[C@@]3(C)[C@H]2CC[C@]3(O)C(=O)CO)[C@@]2(C)CCC(=O)C=C12 | 0.2
11 | CC(=O)[C@H]1CC[C@H]2[C@@H]3C[C@H](C)C4=CC(=O)CC[C@]4(C)[C@H]3C(=O)C[C@]12C | 0.12
12 | C[C@]12C=CC(=O)C=C1C=C[C@@H]1[C@@H]2[C@@H](O)C[C@@]2(C)[C@H]1CC[C@]2(O)C(=O)CO | 0.08
13 | CC(=O)[C@H]1CC[C@H]2[C@@H]3C[C@H](F)C4=CC(=O)CC[C@]4(C)[C@@]3(F)[C@@H](O)C[C@]12C | 0.06
14 | CC(=O)[C@H]1CC[C@H]2[C@@H]3CCC4=CC(=O)[C@H](C)C[C@]4(C)[C@@]3(F)C(=O)C[C@]12C | -0.01
15 | CC(=O)OCC(=O)[C@@]1(O)CC[C@H]2[C@@H]3C[C@H](C)C4=CC(=O)CC[C@]4(C)[C@H]3C(=O)C[C@@]21C | -0.1
16 | CC(=O)[C@@]1(O)CC[C@H]2[C@@H]3CCC4=CC(=O)[C@H](C)C[C@]4(C)[C@@]3(F)[C@@H](O)C[C@@]21C | -0.11

Row | Compound | log(activity)
17 | CC(=O)[C@H]1[C@H](C)C[C@H]2[C@@H]3CCC4=CC(=O)CC[C@]4(C)[C@@]3(F)C(=O)C[C@@]21C | -0.11
18 | C[C@]12CCC(=O)C=C1C=C[C@@H]1[C@@H]2[C@@H](O)C[C@@]2(C)[C@H]1CC[C@]2(O)C(=O)CO | -0.15
19 | CC(=O)[C@H]1CC[C@H]2[C@@H]3CCC4=CC(=O)[C@H](C)C[C@]4(C)[C@@]3(F)[C@@H](O)C[C@]12C | -0.28
20 | C[C@@H]1C[C@H]2[C@@H]3C[C@H](F)C4=CC(=O)CC[C@]4(C)[C@H]3CC[C@]2(C)[C@@]1(O)C(=O)CO | -0.6
21 | CC(=O)C1(C(C)=O)CC[C@H]2[C@@H]3CCC4=CC(=O)CC[C@]4(C)[C@@]3(F)[C@@H](O)C[C@@]21C | -0.7
22 | CC(=O)[C@H]1CC[C@H]2[C@@H]3C[C@H](F)C4=CC(=O)CC[C@]4(C)[C@H]3C(=O)C[C@]12C | -1.15
23 | CC(=O)[C@H]1CC[C@H]2[C@@H]3CCC4=CC(=O)CC[C@]4(C)[C@@]3(F)[C@@H](O)C[C@]12C | -1.3
24 | CC(=O)[C@H]1[C@H](O)C[C@H]2[C@@H]3CCC4=CC(=O)CC[C@]4(C)[C@@]3(F)[C@@H](O)C[C@@]21C | -1.3
25 | C[C@]12C[C@H](O)[C@H]3[C@@H](CCC4=CC(=O)CC[C@@]43C)[C@@H]1CC[C@@H]2C(=O)CO [CORTICOSTERONE] | -0.55
26 | C[C@]12CCC(=O)C=C1CC[C@@H]1[C@@H]2C(=O)C[C@@]2(C)[C@H]1CC[C@]2(O)C(=O)CO [CORTISONE] | -0.46
27 | C[C@]12CCC(=O)C=C1CC[C@H]1[C@@H]3CC[C@](O)(C(=O)CO)[C@@]3(C)C[C@H](O)[C@@]12F [FLUDROCORTISONE] | 0.9
28 | C[C@]12CCC(=O)C=C1CC[C@@H]1[C@@H]2[C@@H](O)C[C@@]2(C)[C@H]1CC[C@]2(O)C(=O)CO [HYDROCORTISONE] | 0
29 | C[C@]12C=CC(=O)C=C1CC[C@@H]1[C@@H]2[C@@H](O)C[C@@]2(C)[C@H]1CC[C@]2(O)C(=O)CO [PREDNISOLONE] | 0.43
30 | C[C@]12C=CC(=O)C=C1CC[C@@H]1[C@@H]2C(=O)C[C@@]2(C)[C@H]1CC[C@]2(O)C(=O)CO [PREDNISONE] | 0.32
31 | C[C@]12C=CC(=O)C=C1CC[C@H]1[C@@H]3C[C@@H](O)[C@](O)(C(=O)CO)[C@@]3(C)C[C@H](O)[C@@]12F [TRIAMCINOLONE] | 1.03
